From patent publication US20120121540A1 (priority 2007, published 2012)

Test: HCV replicon assay (luciferase reporter, ET cell line)
Assay type: cell-based
Conditions: Hepatitis C virus, HCV replicon luciferase activity in ET cells
How it was run: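 ET cells carry a stable luciferase-ubiquitin-neo/NS3-5B subgenomic HCV replicon with adaptive mutations. Compounds (0.1 nM to […], 0.5% DMSO) were added 24 h after plating, and luciferase was read 48-72 h later. EC50 came from 10-point 2-fold dilutions fitted to a Hill equation; TC50 was measured in parallel by WST-1.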

**Q.** For N#Cc1cc(-c2ccccc2)cn2c(Br)c(C(=O)NCc3cccs3)nc12 [Compound 362, 3-Bromo-8-cyano-6-phenyl-imidazo[1,2-a]pyridine-2-carboxylic Acid (thiophen-2-ylmethyl)amide], which inhibition at 10 µM is on record?
**A.** 86.9%

**Q.** With O=C(c1nc2c(C(F)(F)F)cc(-c3cn[nH]c3)cn2c1Br)N1CC=C(c2cccc(F)c2)C1 [Compound 437, [3-Bromo-6-(1H-pyrazol-4-yl)-8-trifluoromethyl-imidazo[1,2-a]pyridin-2-yl]-[3-(3-fluoro-phenyl)-2,5-dihydro-pyrrol-1-yl]-methanone] as the molecule, how does the inhibition at 10 µM read?
**A.** 96.9%

**Q.** Which inhibition at 10 µM does the source give for O=C(c1nc2c(C(F)(F)F)cc(-c3ccoc3)cn2c1Cl)N1CC(NS(=O)(=O)C2CC2)C1 [Compound 498, Cyclopropanesulfonic Acid[1-(3-chloro-6-furan-3-yl-8-trifluoromethyl-imidazo[1,2-a]pyridine-2-carbonyl)-azetidin-3-yl]-amide] here?
**A.** 95%

**Q.** Which inhibition at 10 µM does the source give for O=C(c1nc2c(C(F)(F)F)cc(-c3ccoc3)cn2c1Cl)N1CCN(c2ccc(F)c(F)c2)CC1 [Compound 538] here?
**A.** 78.3%

**Q.** For O=C(NCc1cccs1)c1nc2c(C(F)(F)F)cc(-c3cccc(F)c3)cn2c1C1=CCCCC1 [Compound 303, 3-Cyclohex-1-enyl-6-(3-fluoro-phenyl)-8-trifluoromethyl-imidazo[1,2-a]pyridine-2-carboxylic Acid (thiophen-2-ylmethyl)-amide], which inhibition at 10 µM is on record?
**A.** 39.7%

**Q.** With Fc1cccc(C2CCN(Cc3cn4cc(-c5ccoc5)cc(C(F)(F)F)c4n3)C2)c1 (stereo not drawn) [Compound 474, 2-[3-(3-Fluoro-phenyl)-pyrroidin-1-ylmethyl]-6-furan-3-yl-8-trifluoromethyl-imidazo[1,2-a]pyridine] as the molecule, how does the inhibition at 10 µM read?
**A.** 0.7%

**Q.** With C=C(C)c1c(C(=O)NCc2cccs2)nc2c(C(F)(F)F)cc(-c3cccc(F)c3)cn12 [Compound 302, 6-(3-Fluoro-phenyl)-3-isopropenyl-8-trifluoromethyl-imidazo[1,2-a]pyridine-2-carboxylic Acid (thiophen-2-ylmethyl)-amide] as the molecule, how does the inhibition at 10 µM read?
**A.** 69.5%

**Q.** With O=C(c1nc2c(C(F)(F)F)cc(-c3ccoc3)cn2c1Cl)N1CC=C(c2ccnc(F)c2)CC1 [Compound 587, (3-Chloro-6-furan-3-yl-8-trifluoromethyl-imidazo[1,2-a]pyridine-2-yl)-(2′-fluoro-3,6-dihydro-2H-[4,4′]bipyridinyl-1-yl)-methanone] as the molecule, how does the inhibition at 10 µM read?
**A.** 76.9%

**Q.** Which inhibition at 10 µM does the source give for O=C(c1nc2c(C(F)(F)F)cc(-c3ccco3)cn2c1Cl)N1CCN(Cc2ccccc2)CC1 [Compound 324, (4-Benzyl-piperazin-1-yl)-(3-chloro-6-furan-2-yl-8-trifluoromethyl-imidazo[1,2-a]pyridin-2-yl)-methanone] here?
**A.** 34.6%

**Q.** With O=C(c1nc2c(C(F)(F)F)cc(-c3ccoc3)cn2c1Cl)N1CCC(c2ccc(F)c(F)c2)C1 (stereo not drawn) [Compound 420, (3-Chloro-6-furan-3-yl-8-trifluoromethyl-imidazo[1,2-a]pyridine-2-yl)-[3-(3,4-difluoro-phenyl)-pyrrolidin-1-yl]-methanone] as the molecule, how does the inhibition at 10 µM read?
**A.** 93.6%

**Q.** Which inhibition at 10 µM does the source give for O=C(c1nc2c(C(F)(F)F)cc(-c3cc[nH]c3)cn2c1Cl)N1CCC(c2cccc(F)c2)C1 (stereo not drawn) [Compound 524, [3-Chloro-6-(1H-pyrrol-3-yl)-8-trifluoromethyl-imidazo[1,2-a]pyridin-2-yl]-[3-(3-fluoro-phenyl)-pyrrolidin-1-yl]methanone] here?
**A.** 91%

**Q.** For Cc1noc(C2CCN(C(=O)c3nc4c(C(F)(F)F)cc(-c5ccoc5)cn4c3Cl)C2)n1 (stereo not drawn) [Compound 475, (3-Chloro-6-furan-3-yl-8-trifluoromethyl-imidaz[1,2-a]pyridin-2-yl)-[3-(3-methyl-[1,2,4]oxadiazol-5-yl)-pyrrolidin-1-yl]-methanone], which inhibition at 10 µM is on record?
**A.** 93%

**Q.** With O=C(NCc1cccs1)c1nc2c(C(F)(F)F)cc(-c3ccccc3)cn2c1Cl [Compound 177, 3-Chloro-6-phenyl-8-trifluoromethyl-imidazo[1,2-a]pyridine-2-carboxylic acid (thiophen-2-ylmethyl)-amide] as the molecule, how does the inhibition at 10 µM read?
**A.** 93.2%

**Q.** With O=C(c1nc2c(C(F)(F)F)cc(-c3ccoc3)cn2c1Cl)N1CCC(c2ccccc2F)C1 (stereo not drawn) [Compound 333, (3-Chloro-6-furan-3-yl-8-trifluoromethyl-imidazo[1,2-a]pyridin-2-yl)-[3-(2-fluoro-phenyl)-pyrrolidin-1-yl]-methanone] as the molecule, how does the inhibition at 10 µM read?
**A.** 98.9%

**Q.** For O=C(c1nc2c(C(F)(F)F)cc(-c3ccco3)cn2c1Cl)N1CCC(c2ccccc2)C1 (stereo not drawn) [Compound 186, (3-Chloro-6-furan-2-yl-8-trifluoromethyl-imidazo[1,2-a]pyridin-2-yl)-(3-phenyl-pyrrolidin-1-yl)-methanone], which inhibition at 10 µM is on record?
**A.** 96%

**Q.** For O=C(c1nc2c(C(F)(F)F)cc(-c3ccoc3)cn2c1Cl)N1CCC(N2CCCCC2)C1 (stereo not drawn) [Compound 340, (3-Chloro-6-furan-3-yl-8-trifluoromethyl-imidazo[1,2-a]pyridin-2-yl)-(3-piperidin-1-yl-pyrrolidin-1-yl)-methanone], which inhibition at 10 µM is on record?
**A.** 65.6%

**Q.** With COc1cc(-c2ccccc2)cc2cc(C(=O)NCc3cccs3)nn12 [Compound 117, 7-Methoxy-5-phenyl-pyrazolo[1,5-a]pyridine-2-carboxylic Acid (thiophen-2-ylmethyl)-amide] as the molecule, how does the inhibition at 10 µM read?
**A.** 25.8%

**Q.** With N#Cc1cc(F)ccc1C1=CCN(C(=O)c2nc3c(C(F)(F)F)cc(-c4ccoc4)cn3c2Cl)CC1 [Compound 570, 2-[1-(3-Chloro-6-furan-3-yl-8-trifluoromethyl-imidazo[1,2-a]pyridine-2-carbonyl)-1,2,3,6-tetrahydro-pyridin-4-yl]-5-fluoro-benzonitrile] as the molecule, how does the inhibition at 10 µM read?
**A.** 89.1%

**Q.** For N#CC1CCN(C(=O)c2nc3c(C(F)(F)F)cc(-c4ccoc4)cn3c2Cl)C1 (stereo not drawn) [Compound 416, 1-(3-Chloro-6-furan-3-yl-8-trifluoromethyl-imidazo[1,2-a]pyridine-2-carbonyl)-pyrrolidine-3-carbonitrile], which inhibition at 10 µM is on record?
**A.** 58%

**Q.** For N#Cc1ccccc1C1=CCN(C(=O)c2nc3c(C(F)(F)F)cc(-c4ccoc4)cn3c2Cl)CC1 [Compound 563, 2-[1-(3-Chloro-6-furan-3-yl-8-trifluoromethyl-imidazo[1,2-a]pyridine-2-carbonyl)-1,2,3,6-tetrahydro-pyridin-4-yl]-benzonitrile], which inhibition at 10 µM is on record?
**A.** 97.4%

**Q.** With O=C(Cc1cn2cc(-c3ccoc3)cc(C(F)(F)F)c2n1)NCc1cccs1 [Compound 650, 2-[6-(furan-3-yl)-8-(trifluoromethyl)imidazo[1,2-a]pyridin-2-yl]-N-(thiophen-2-ylmethyl)acetamide] as the molecule, how does the inhibition at 10 µM read?
**A.** 65.7%

**Q.** With COc1ccccc1C1CCN(C(=O)c2nc3c(C(F)(F)F)cc(-c4ccoc4)cn3c2Cl)C1 (stereo not drawn) [Compound 463, (3-Chloro-6-furan-3-yl-8-trifluoromethyl-imidaz [1,2-a]pyridin-2-yl)-[3-(2-methoxy-phenyl)-pyrrolidin-1-yl]-methanone] as the molecule, how does the inhibition at 10 µM read?
**A.** 80.6%

**Q.** For O=C(NCc1cccc(N2CCOCC2)c1)c1nc2c(C(F)(F)F)cc(-c3ccco3)cn2c1Cl [Compound 213, 3-Chloro-6-furan-2-yl-8-trifluoromethyl-imidazo[1,2-a]pyridine-2-carboxylic Acid 3-morpholin-4-yl-benzylamide], which inhibition at 10 µM is on record?
**A.** 2.7%

**Q.** With O=C(NCc1cccs1)c1nc2c(C(F)(F)F)cc(-c3ccc(Cl)s3)cn2c1Cl [Compound 176, 3-Chloro-6-(5-chloro-thiophen-2-yl)-8-trifluoromethyl-imidazo[1,2-a]pyridine-2-carboxylic acid (thiophen-2-ylmethyl)-amide] as the molecule, how does the inhibition at 10 µM read?
**A.** 96.8%
